What was measured:
[1] = target: Histone deacetylase 1 (Homo sapiens, UniProt Q13547); assay: Inhibition of HDAC1 (unknown origin)
[2] = target: Histone deacetylase 8 (Homo sapiens, UniProt Q9BY41); assay: Inhibition of HDAC8 (unknown origin)
[3] = target: Histone deacetylase 4 (Homo sapiens, UniProt P56524); assay: Inhibition of HDAC4 (unknown origin)
Chain of Histone deacetylase 4 (P56524 whole entry): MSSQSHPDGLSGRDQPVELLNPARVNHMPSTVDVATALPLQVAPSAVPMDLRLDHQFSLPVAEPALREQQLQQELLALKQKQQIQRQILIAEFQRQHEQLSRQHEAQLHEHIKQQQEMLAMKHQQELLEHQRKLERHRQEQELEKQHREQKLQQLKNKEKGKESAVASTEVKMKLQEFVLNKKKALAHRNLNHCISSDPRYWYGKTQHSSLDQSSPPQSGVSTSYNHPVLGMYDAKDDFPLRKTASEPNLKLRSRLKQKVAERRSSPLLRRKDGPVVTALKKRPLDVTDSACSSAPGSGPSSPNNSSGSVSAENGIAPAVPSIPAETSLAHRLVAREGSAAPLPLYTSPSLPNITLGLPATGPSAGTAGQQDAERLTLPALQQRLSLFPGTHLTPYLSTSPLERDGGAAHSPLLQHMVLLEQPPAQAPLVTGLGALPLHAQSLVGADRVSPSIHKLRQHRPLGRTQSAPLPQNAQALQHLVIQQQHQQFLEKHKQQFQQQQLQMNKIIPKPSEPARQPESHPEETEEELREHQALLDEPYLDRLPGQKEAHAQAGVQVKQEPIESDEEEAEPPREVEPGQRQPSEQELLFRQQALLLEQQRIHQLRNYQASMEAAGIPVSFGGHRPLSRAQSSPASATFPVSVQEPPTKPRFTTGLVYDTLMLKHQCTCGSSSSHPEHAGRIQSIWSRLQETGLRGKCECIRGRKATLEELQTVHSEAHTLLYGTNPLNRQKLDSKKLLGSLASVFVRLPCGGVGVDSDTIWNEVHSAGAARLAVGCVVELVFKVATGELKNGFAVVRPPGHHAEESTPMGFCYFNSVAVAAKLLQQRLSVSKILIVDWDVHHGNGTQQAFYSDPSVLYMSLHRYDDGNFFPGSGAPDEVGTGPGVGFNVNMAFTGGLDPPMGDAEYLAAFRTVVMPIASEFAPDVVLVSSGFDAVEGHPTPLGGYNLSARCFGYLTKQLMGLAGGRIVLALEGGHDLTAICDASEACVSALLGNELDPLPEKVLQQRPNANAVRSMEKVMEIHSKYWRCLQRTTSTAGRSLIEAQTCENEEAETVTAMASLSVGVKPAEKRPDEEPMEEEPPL

Chain of Histone deacetylase 8 (Q9BY41 whole entry): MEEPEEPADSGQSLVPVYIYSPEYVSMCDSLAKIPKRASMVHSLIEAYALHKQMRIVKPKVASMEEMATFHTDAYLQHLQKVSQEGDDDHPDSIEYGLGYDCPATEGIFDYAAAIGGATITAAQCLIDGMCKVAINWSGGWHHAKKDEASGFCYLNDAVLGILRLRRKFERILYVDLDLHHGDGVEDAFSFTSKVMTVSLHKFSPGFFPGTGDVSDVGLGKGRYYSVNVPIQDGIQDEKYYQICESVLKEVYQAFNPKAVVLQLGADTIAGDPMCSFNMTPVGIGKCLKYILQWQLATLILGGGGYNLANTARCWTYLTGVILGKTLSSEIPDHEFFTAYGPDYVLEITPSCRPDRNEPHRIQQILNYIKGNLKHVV
Chain of Histone deacetylase 1 (Q13547 whole entry): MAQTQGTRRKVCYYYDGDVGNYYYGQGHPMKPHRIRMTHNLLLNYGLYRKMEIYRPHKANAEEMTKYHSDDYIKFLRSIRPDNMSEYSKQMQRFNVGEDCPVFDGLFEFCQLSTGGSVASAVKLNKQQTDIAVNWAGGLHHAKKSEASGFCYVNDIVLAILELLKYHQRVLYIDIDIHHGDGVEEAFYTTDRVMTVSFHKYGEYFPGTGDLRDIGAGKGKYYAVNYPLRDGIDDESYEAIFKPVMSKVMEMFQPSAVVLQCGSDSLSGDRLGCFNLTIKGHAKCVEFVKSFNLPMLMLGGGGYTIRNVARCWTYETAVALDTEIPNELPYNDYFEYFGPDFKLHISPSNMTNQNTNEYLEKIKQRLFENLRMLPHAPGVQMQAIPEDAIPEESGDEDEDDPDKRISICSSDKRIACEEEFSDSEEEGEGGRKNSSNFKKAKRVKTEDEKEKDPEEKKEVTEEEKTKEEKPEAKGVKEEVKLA

Q: Which results are given for `COc1ccc(-c2nc(C(=O)NCc3ccc(C(=O)NO)cc3)cc3c2[nH]c2ccccc23)cc1`?
A: IC50 [1]: 4.1 nM; IC50 [2]: > 1000 nM; IC50 [3]: > 1000 nM

Source: ChEMBL document CHEMBL5233266, “β-Carboline as a Privileged Scaffold for Multitarget Strategies in Alzheimer's Disease Therapy” (J Med Chem, 2021)
